# Legend:
# 15-PGDH/HPGD = molecular target: T1, 15-PGDH/HPGD (Homo sapiens, UniProt P15428); assay: hPGDH inhibitor screening biochemical assay; conditions: 10 nM enzyme, 15 μM Prostaglandin E2, 0.25 mM NAD, fluorescence ex/em 340/485 nm
# T1 construct: purchased R&D System 5660-DH
# T1 sequence (P15428 1-266): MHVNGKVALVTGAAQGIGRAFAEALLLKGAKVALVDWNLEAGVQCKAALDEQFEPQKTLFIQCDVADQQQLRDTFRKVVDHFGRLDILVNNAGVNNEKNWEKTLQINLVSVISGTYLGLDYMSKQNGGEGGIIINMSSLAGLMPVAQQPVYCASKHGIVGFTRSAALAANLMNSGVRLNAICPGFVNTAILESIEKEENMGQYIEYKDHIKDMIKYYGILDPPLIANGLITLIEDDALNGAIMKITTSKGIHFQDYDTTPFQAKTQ
# Outline: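 Recombinant 15-PGDH (10 nM) preincubated with compound 10 min at 37° C, then 15 μM PGE2 and 0.25 mM NAD⁺ added for 10 min at room temperature in 50 mM Tris-HCl pH 7.5, 0.01% Tween 20. NADH fluorescence at ex/em 340/485 nm; 10-point dose response.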
# A549 = A549 EC50 (cell assay, method not described); assay type: cell-based
IC50 (15-PGDH/HPGD),"EC50 (A549; Homo sapiens, A549, A549)",EC50 (A549; A549),SMILES
< 100 nM,≥ 1000 nM,,CC1(C)CC(OC[C@@H](O)c2cnc3c(cnn3-c3ccc(C(=O)O)nc3)c2)C1 [Compound 116B]
< 100 nM,< 100 nM,,O[C@H](c1cnc2c(ccn2-c2cc(Cl)cc(-c3nnc[nH]3)c2)c1)C1CCC(F)(F)CC1 [Compound 12B]
100 to 1000 nM,≥ 1000 nM,,O[C@@H](COC1CCC1)c1cnc2c(cnn2-c2ccc(N3CCOCC3)cc2)c1 [Compound 76A]
< 100 nM,< 100 nM,,"CC(C)OCC(O)c1cnc2c(cnn2-c2ccc(CCC(=O)O)c(F)c2)c1 (stereo in doubt) [Compound 70A, (R)-3-(2-fluoro-4-(5-(1-hydroxy-2-isopropoxyethyl)-1H-pyrazolo[3,4-b]pyridin-1-yl)phenyl) propanoic acid]"
100 to 1000 nM,≥ 1000 nM,,Cc1cc(-n2ncc3cc([C@H](O)COC4CCC4)cnc32)ccc1C(=O)O [Compound 95B]
100 to 1000 nM,100 to 1000 nM,,C[S+]([O-])c1cccc(-n2ncc3cc([C@@H](O)COC4CCC4)cnc32)c1 (stereo partly drawn) [Compound 125A]
< 100 nM,≥ 1000 nM,,C[C@H]1C[C@@H](OC[C@H](O)c2cnc3c(cnn3-c3ccc(C(=O)O)cc3)c2)C1 [Compound 127A]
< 100 nM,< 100 nM,,O=C(O)c1ccc(-n2ccc3nc([C@H](O)C4CC(F)(F)C4)cnc32)cc1 [Compound 46A]
100 to 1000 nM,100 to 1000 nM,,CC(F)(F)[C@H](O)c1cnc2c(ccn2-c2cccc(-c3nnc[nH]3)c2)c1 [Compound 5B]
100 to 1000 nM,100 to 1000 nM,,O=C(O)[C@@H]1CCN(c2ccc(-n3ncc4cc([C@H](O)COC5CCC5)cnc43)cc2)C1 [Compound 87B]
< 100 nM,100 to 1000 nM,,O=C(O)c1ccc(-n2ncc3cc([C@H](O)C4COC4)ccc32)cc1 [Compound 120A]
100 to 1000 nM,≥ 1000 nM,,O=C(O)c1ccc(-n2ncc3cc([C@@H](O)COCC4(C(F)(F)F)CC4)cnc32)cc1 [Compound 113A]
100 to 1000 nM,≥ 1000 nM,,CC1(C)CC(OC[C@H](O)c2cnc3c(cnn3-c3ccc(C(=O)O)nc3)c2)C1 [Compound 116A]
< 100 nM,< 100 nM,,CC(F)(F)[C@@H](O)c1cnc2c(ccn2-c2cccc(-c3nnc[nH]3)c2)c1 [Compound 5A]
< 100 nM,< 100 nM,,Cc1cc(-n2ncc3cc([C@@H](O)COC4CCC4)cnc32)ccc1C(=O)O [Compound 95A]
≥ 1000 nM,100 to 1000 nM,,CC(C)(OCC(F)F)[C@H](O)c1cnc2c(cnn2-c2cccc(-c3nnc[nH]3)c2)c1 [Compound 61B]
≥ 1000 nM,≥ 1000 nM,,CC(C)NC[C@H](O)c1cnc2c(ccn2-c2cccc(-c3nnc[nH]3)c2)n1 [Compound 22A]
< 100 nM,< 100 nM,,CC(C)OCC[C@@H](O)c1cnc2c(ccn2-c2cccc(-c3nnc[nH]3)c2)c1 [Compound 41B]
100 to 1000 nM,≥ 1000 nM,,C[C@H]1C[C@H](OC[C@H](O)c2cnc3c(cnn3-c3ccc(C(=O)O)cc3)c2)C1 [Compound 127C]

IC50 (15-PGDH/HPGD),"EC50 (A549; Homo sapiens, A549, A549)",EC50 (A549; A549),SMILES
≥ 1000 nM,≥ 1000 nM,,CCCOC(C)(C)[C@H](O)c1cnc2c(cnn2-c2cccc(-c3nnc[nH]3)c2)c1 [Compound 57A]
< 100 nM,< 100 nM,,C[C@H]1C[C@H](OC[C@@H](O)c2cnc3c(cnn3-c3ccc(C(=O)O)cc3)c2)C1 [Compound 127D]
< 100 nM,< 100 nM,,CCOC[C@@H](O)c1cnc2c(cnn2-c2cccc(-c3nnc[nH]3)c2)c1 [Compound 23B]
< 100 nM,< 100 nM,,CC(C)OC[C@H](O)c1cnc2c(ccn2-c2cccc(-c3nnc[nH]3)c2)c1 [Compound 29A]
< 100 nM,100 to 1000 nM,,CC(C)OC[C@H](O)c1cnc2c(ccn2-c2cccc(-c3nnc[nH]3)c2)n1 [Compound 20B]
< 100 nM,100 to 1000 nM,,Cc1nn(-c2ccc(C(=O)O)cc2)c2ncc([C@@H](O)COC3CC3)cc12 [Compound 126A]
< 100 nM,100 to 1000 nM,,O[C@H](c1cnc2c(cnn2-c2cccc(-c3nnc[nH]3)c2)c1)C1COC1 [Compound 28B]
100 to 1000 nM,≥ 1000 nM,,CCCC(F)(F)[C@H](O)c1cnc2c(ccn2-c2cccc(-c3nnc[nH]3)c2)n1 [Compound 35B]
< 100 nM,100 to 1000 nM,,O[C@@H](COC1CC1)c1cnc2c(ccn2-c2cccc(-c3nnc[nH]3)c2)n1 [Compound 38B]
≥ 1000 nM,≥ 1000 nM,,C[S+]([O-])c1ccc(-n2ncc3cc([C@H](O)COC4CCC4)cnc32)cc1 (stereo partly drawn) [Compound 124B]
< 100 nM,≥ 1000 nM,,CSc1cccc(-n2ncc3cc([C@@H](O)COC4CCC4)cnc32)c1 [Compound 122A]
100 to 1000 nM,≥ 1000 nM,,CC(C)OC[C@H](O)c1cnc2c(cnn2-c2ccc(OCC(=O)O)c(F)c2)c1 [Compound 74B]
< 100 nM,100 to 1000 nM,,O=C(O)c1ccc(-n2ncc3cc([C@H](O)C4(OCC(F)F)CC4)cnc32)cc1 [Compound 72A]
< 100 nM,< 100 nM,,C[C@@H](OC1CCC1)[C@H](O)c1cnc2c(cnn2-c2ccc(C(=O)O)cc2)c1 [Compound 108A]
< 100 nM,100 to 1000 nM,,CSc1ccc(-n2ncc3cc([C@@H](O)COC4CCC4)cnc32)cc1 [Compound 119A]
≥ 1000 nM,≥ 1000 nM,,CCOC1([C@H](O)c2cnc3c(cnn3-c3ccc4nc(N5CCOCC5)nn4c3)c2)CC1 [Compound 62A]
< 100 nM,< 100 nM,,COCC[C@@H](O)c1cnc2c(cnn2-c2cccc(-c3nnc[nH]3)c2)c1 [Compound 36A]
< 100 nM,100 to 1000 nM,,C[C@H](OC1CCC1)[C@@H](O)c1cnc2c(cnn2-c2ccc(C(=O)O)cc2)c1 [Compound 108D]
< 100 nM,< 100 nM,,NC(=O)c1ccc(-n2ncc3cc([C@H](O)COC4CCC4)cnc32)cc1 [Compound 81A]

IC50 (15-PGDH/HPGD),"EC50 (A549; Homo sapiens, A549, A549)",EC50 (A549; A549),SMILES
< 100 nM,< 100 nM,,O=C(O)c1ccc(-n2ncc3cc([C@H](O)COC4CCC4)cnc32)cc1 [Compound 42B]
100 to 1000 nM,,≥ 1000 nM,"CCOC(C)(C)C(O)c1cnc2c(cnn2-c2cccc(-c3nnc[nH]3)c2)c1 (single isomer, unassigned) [Compound 34B]"
< 100 nM,100 to 1000 nM,,CC(C)OC[C@@H](O)c1cnc2c(cnn2-c2ccc(OCC(=O)O)c(F)c2)c1 [Compound 74A]
< 100 nM,< 100 nM,,CCCC[C@H](O)c1cnc2c(ccn2-c2cccc(-c3nnc[nH]3)c2)n1 [Compound 2A]
< 100 nM,< 100 nM,,CC1(COC[C@H](O)c2cnc3c(cnn3-c3ccc(C(=O)O)cc3)c2)CC1 [Compound 106A]
< 100 nM,≥ 1000 nM,,O=C(O)c1ccc(-n2ccc3nc([C@@H](O)COC4CCC4)cnc32)cc1 [Compound 47A]
< 100 nM,100 to 1000 nM,,CN(C)C(=O)c1cccc(-n2ncc3cc([C@@H](O)COC4CCC4)cnc32)c1 [Compound 111A]
< 100 nM,100 to 1000 nM,,O=C(O)c1ccc(-n2ncc3cc([C@H](O)COCC4CC4)ccc32)cc1 [Compound 114B]
< 100 nM,< 100 nM,,CCCC[C@@H](O)c1cnc2c(ccn2-c2cc(Cl)cc(-c3nnc[nH]3)c2)c1 [Compound 17A]
100 to 1000 nM,≥ 1000 nM,,CN(C)C[C@H](O)c1cnc2c(cnn2-c2cccc(-c3nnc[nH]3)c2)c1 [Compound 25A]
100 to 1000 nM,≥ 1000 nM,,O=C(NC[C@@H](O)c1cnc2c(cnn2-c2cccc(-c3nnc[nH]3)c2)c1)C1CC1 [Compound 39B]
< 100 nM,100 to 1000 nM,,"CC(C)OCC(O)c1cnc2c(cnn2-c2ccc(CCC(=O)O)c(F)c2)c1 (stereo in doubt) [Compound 70B, (S)-3-(2-fluoro-4-(5-(1-hydroxy-2-isopropoxyethyl)-1H-pyrazolo[3,4-b]pyridin-1-yl)phenyl) propanoic acid]"
< 100 nM,,< 100 nM,"CC(C)C[C@H](O)C(O)c1cnc2c(ccn2-c2cccc(-c3nnc[nH]3)c2)c1 (stereo in doubt) [Compound 3B, (1S,2S)-4-methyl-1-[1-[3-(4H-1,2,4-triazol-3-yl)phenyl]pyrrolo[2,3-b]pyridin-5-yl]pentane-1,2-diol]"
100 to 1000 nM,100 to 1000 nM,,COCCNC(=O)c1ccc(-n2ncc3cc([C@H](O)COC4CCC4)cnc32)cc1 [Compound 118B]
< 100 nM,100 to 1000 nM,,"CC(C)C[C@H](O)[C@H](O)c1cnc2c(ccn2-c2cccc(-c3nnc[nH]3)c2)c1 [Compound 3C, (1R,2S)-4-methyl-1-[1-[3-(4H-1,2,4-triazol-3-yl)phenyl]pyrrolo[2,3-b]pyridin-5-yl]pentane-1,2-diol]"
< 100 nM,100 to 1000 nM,,CCOC[C@H](O)c1cnc2c(cnn2-c2cccc(-c3nnc[nH]3)c2)c1 [Compound 23A]
< 100 nM,100 to 1000 nM,,CCCC(F)(F)[C@@H](O)c1cnc2c(ccn2-c2cccc(-c3nnc[nH]3)c2)c1 [Compound 4A]
< 100 nM,100 to 1000 nM,,CCOC1([C@@H](O)c2cnc3c(cnn3-c3cccc(-c4nnc[nH]4)c3)c2)CC1 [Compound 63B]
< 100 nM,< 100 nM,,CCCC[C@H](O)c1cnc2c(ccn2-c2cc(Cl)cc(-c3nnc[nH]3)c2)c1 [Compound 17B]

# — patent US20260234139A1, “PGDH INHIBITORS AND METHODS OF MAKING AND USING” (Epirium Bio Inc., priority 2023, published 2026)
